Laboratory results published in publication PMC2689075 (Current biology : CB, 2009).

Biological target: T1, atypical protein kinase C (aPKC) (Drosophila melanogaster, UniProt A1Z9X0)
T1 sequence (A1Z9X0 1-606): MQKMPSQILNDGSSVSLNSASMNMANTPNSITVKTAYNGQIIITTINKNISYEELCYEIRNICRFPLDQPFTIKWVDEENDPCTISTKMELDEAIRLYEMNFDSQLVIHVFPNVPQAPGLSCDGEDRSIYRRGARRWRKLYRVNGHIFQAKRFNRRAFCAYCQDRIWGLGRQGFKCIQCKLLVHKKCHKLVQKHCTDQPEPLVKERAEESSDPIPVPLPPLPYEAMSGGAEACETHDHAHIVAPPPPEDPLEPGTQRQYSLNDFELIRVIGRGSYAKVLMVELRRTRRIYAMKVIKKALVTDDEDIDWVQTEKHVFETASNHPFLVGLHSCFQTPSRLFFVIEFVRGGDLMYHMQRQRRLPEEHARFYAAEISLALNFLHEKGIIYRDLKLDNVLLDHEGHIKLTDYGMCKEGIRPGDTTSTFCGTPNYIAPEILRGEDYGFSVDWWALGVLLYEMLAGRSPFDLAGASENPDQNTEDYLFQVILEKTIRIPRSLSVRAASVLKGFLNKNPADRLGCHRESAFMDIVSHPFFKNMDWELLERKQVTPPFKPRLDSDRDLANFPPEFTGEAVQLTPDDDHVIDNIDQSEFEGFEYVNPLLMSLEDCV
Assay: in vitro […] kinase assay with purified recombinant aPKC
Assay type: biochemical

- IC50: < 10 µM
SMILES: C[C@@H](N)[C@H]1CC[C@H](C(=O)Nc2ccncc2)CC1 [Y-27632]
